Experiment [1] has as its system collagen-induced platelet coagulation. The following applies: background art (Patent Document 1, Non-patent Document 5); read-out: IC50 value against collagen-induced platelet coagulation; cited from earlier work.
Experiment [2] shares this test system. Briefly: Inhibitory effect on collagen-induced platelet coagulation in platelet rich plasma. The class given is cell-based. The note with it: human platelet rich plasma, 37° C., coagulation induced with collagen; read-out: Inhibition of collagen-induced platelet coagulation, IC50. The procedure: Human blood was collected by using 1/10 volume of 3.13% sodium citrate as an anticoagulant, and the blood was centrifuged at 180 g for 10 minutes to separate platelet rich plasma (PRP), which was the upper layer. After collecting the upper layer PRP, the remaining lower layer was centrifuged at 1600 g for 10 minutes, and platelet poor plasma (PPP) in the upper layer was collected. 1 μl solution of the compound of the Examples was added to 200 μl of the PRP, and after allowing the sample to stand at 37° C. for 2 minutes, 2 μl of collagen was added in order to induce platelet coagulation. Platelet coagulation rate was measured with PAM-12C (SSR Engineering).

Another experiment concerns the target T1, Cyclooxygenase-2 (COX-2) (Homo sapiens, UniProt P35354).
T1 construct: purchased Cayman Chemical Company 560121
T1 sequence (P35354 18-604): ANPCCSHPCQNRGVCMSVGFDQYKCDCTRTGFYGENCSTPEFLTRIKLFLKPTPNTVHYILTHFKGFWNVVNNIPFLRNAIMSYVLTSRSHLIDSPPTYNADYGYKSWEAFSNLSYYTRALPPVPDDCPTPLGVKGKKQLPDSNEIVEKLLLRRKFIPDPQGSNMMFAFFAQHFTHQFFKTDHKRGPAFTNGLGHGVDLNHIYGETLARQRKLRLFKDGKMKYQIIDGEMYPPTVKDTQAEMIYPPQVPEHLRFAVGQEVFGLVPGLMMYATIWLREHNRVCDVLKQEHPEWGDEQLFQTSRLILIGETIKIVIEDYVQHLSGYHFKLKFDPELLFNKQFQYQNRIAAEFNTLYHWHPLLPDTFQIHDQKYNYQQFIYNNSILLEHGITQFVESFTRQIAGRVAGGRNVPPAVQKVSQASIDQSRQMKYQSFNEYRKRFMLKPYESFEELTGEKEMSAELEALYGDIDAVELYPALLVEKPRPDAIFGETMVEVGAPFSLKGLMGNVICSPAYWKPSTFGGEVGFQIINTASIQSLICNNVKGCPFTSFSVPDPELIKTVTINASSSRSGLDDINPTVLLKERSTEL
Briefly: COX Inhibitor Screening Assay Kit (Cayman), PGF2α by ELISA, COX-2. The class given is biochemical. The note with it: compound at 50 μm; relative to PGF2α produced without compound (100%). As for the experimental part: (§1) Inhibitory activity against COX-1 and COX-2 of the compounds produced in the Examples was measured by using COX Inhibitor Screening Assay Kit (Catalog Nos. 560101 and 560121) purchased from Cayman Chemical Company.
(§2) Before starting the measurement, reaction buffer, heme, arachidonic acid, SnCl2, EIA buffer, washing buffer, prostaglandin (PG) screening EIA standard, PG screening acetylcholine esterase (AchE), tracer (chromogenic enzyme HRP conjugate), and PC screening EIA antiserum were prepared ready for use.
(§3) The reaction mixture containing the compound of the Examples (50 μM) and COX-1 or COX-2 was allowed to stand at 37° C. or 10 minutes, and after adding 10 μl of arachidonic acid, the solution was again allowed to stand at 37° C. for 2 minutes. After the reaction, the reaction was terminated by adding 50 μl of 1N-hydrochloric acid, and 100 μl solution of SnCl2 was added, and the reaction mixture was allowed to stand at room temperature for 5 minutes.
(§4) 50 μl of antiserum (rabbit anti-PGF2α antibody) was placed in the wells of 96 well plate that had been coated with mouse anti-rabbit IgG and 50 μl of the 2000-fold diluted PGF2α-containing liquid described above and 50 μl of AchE tracer were added to the well in this order, and the mixture was allowed to stand at room temperature for 18 hours. The wells were washed 5 times with the washing buffer to remove an excessive AchE tracer, and 200 μl of Ellman reagent was added. After leaving the plate in a dark room for 60 minutes, absorbance was measured at 405 nm.
(§5) A calibration curve was obtained by using the PG screening EIA standard, and the amount of PGF2α produced was determined from the absorption. Inhibitory rate at 50 μM of the compound of the Examples against COX-1 or COX-2 was calculated.
(§6) It is to be noted that the inhibitory rate was calculated in relation to the amount of the PGF2α produced by the reaction liquid free from the compounds of the Examples, which was taken 100%.
A general note: ELISA stands for enzyme-linked immunosorbent assay.

The next experiment addresses T2, Cyclooxygenase-1 (COX-1) (Ovis aries, UniProt P05979).
T2 construct: purchased Cayman Chemical Company 560101
T2 sequence (P05979 25-600): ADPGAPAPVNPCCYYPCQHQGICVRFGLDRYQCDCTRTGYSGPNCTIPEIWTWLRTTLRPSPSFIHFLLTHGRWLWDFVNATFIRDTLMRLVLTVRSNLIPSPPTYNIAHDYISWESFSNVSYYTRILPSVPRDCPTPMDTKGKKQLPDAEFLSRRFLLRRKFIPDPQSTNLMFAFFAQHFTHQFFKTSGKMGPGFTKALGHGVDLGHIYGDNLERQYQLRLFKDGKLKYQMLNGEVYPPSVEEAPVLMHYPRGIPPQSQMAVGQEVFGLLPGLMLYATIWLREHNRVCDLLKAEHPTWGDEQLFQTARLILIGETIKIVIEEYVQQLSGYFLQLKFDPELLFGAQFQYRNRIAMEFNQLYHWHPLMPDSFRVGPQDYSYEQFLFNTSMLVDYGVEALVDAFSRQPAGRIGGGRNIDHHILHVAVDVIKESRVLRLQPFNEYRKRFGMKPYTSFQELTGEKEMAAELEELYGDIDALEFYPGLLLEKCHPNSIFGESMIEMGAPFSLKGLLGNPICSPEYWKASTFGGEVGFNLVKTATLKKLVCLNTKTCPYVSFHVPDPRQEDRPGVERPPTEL
Briefly: COX Inhibitor Screening Assay Kit (Cayman), PGF2α by ELISA, COX-1. The following applies: compound at 50 μm; relative to PGF2α produced without compound (100%). It is filed as biochemical. As for the experimental part: as §1, §2, §3, §4, §5, §6

Molecules are shown by their SMILES. Read-outs that look alike come from different tables or passages of the source.

The IC50 is the concentration that gives 50% inhibition. On to `CS(=O)(=O)c1ccc(-c2cc(C#N)nn2-c2ccc(F)cc2)cc1` [Compound (A)], for which the IC50 in experiment [1] was 5.3 µM.
In the case of `COc1ccc(-n2nc(C(=O)NC(C)(C)C)cc2-c2cc(CO)ccn2)cn1` [Example 4, N-tert-Butyl-5-(4-hydroxymethyl-2-pyridyl)-1-(6-methoxy-3-pyridyl)-1H-pyrazole-3-carboxamide], the IC50 in experiment [2] amounted to 0.12 µM. Further, the “Inhibitory effect against COX-2 at 50 μm (% inhibition)” value on Cyclooxygenase-2 (COX-2) is −1.9 % inhibition. Further, on Cyclooxygenase-1 (COX-1), the “Inhibitory effect against COX-1 at 50 μm (% inhibition)” value was −1.5 % inhibition.
On the same counts, the results for `Cc1ccc(-n2nc(C(=O)NC(C)(C)C)cc2-c2ccccn2)cn1` [Example 8, N-tert-Butyl-1-(6-methyl-3-pyridyl)-5-(2-pyridyl)-1H-pyrazole-3-carboxamide] are 0.018 µM, 3.9 % inhibition and −3.3 % inhibition.
For `COc1ccc(-n2nc(C(=O)NC(C)(C)C)cc2-c2cnccn2)cn1` [Example 13, N-tert-Butyl-1-(6-methoxy-3-pyridyl)-5-(2-pyrazinyl)-1H-pyrazole-3-carboxamide], in that order: 0.018 µM, 9.2 % inhibition and 13.9 % inhibition.
On the same counts, the results for `COc1cnc(-n2nc(C(=O)NC(C)(C)C)cc2-c2ccccn2)cn1` [Example 15, N-tert-Butyl-1-(5-methoxy-2-pyrazinyl)-5-(2-pyridyl)-1H-pyrazole-3-carboxamide] are 0.029 µM, 6.9 % inhibition and 39.5 % inhibition.
Turning to `CC(C)(C)NC(=O)c1cc(-c2ccc(O)cn2)n(-c2cccnc2)n1` [Example 22, N-tert-Butyl-5-(5-hydroxy-2-pyridyl)-1-(3-pyridyl)-1H-pyrazole-3-carboxamide], the IC50 in experiment [2] is 0.21 µM. In addition, on Cyclooxygenase-2 (COX-2), the “Inhibitory effect against COX-2 at 50 μm (% inhibition)” value amounted to 4.2 % inhibition. The “Inhibitory effect against COX-1 at 50 μm (% inhibition)” value on Cyclooxygenase-1 (COX-1) was 0.8 % inhibition.
Take `COc1ccc(-c2cc(C(=O)NC(C)(C)C)nn2-c2cccnc2)nc1` [Example 25, N-tert-Butyl-5-(5-methoxy-2-pyridyl)-1-(3-pyridyl)-1H-pyrazole-3-carboxamide]: in experiment [2], the IC50 came to 0.018 µM. In addition, on Cyclooxygenase-2 (COX-2), the “Inhibitory effect against COX-2 at 50 μm (% inhibition)” value turned out to be 8.2 % inhibition. The “Inhibitory effect against COX-1 at 50 μm (% inhibition)” value on Cyclooxygenase-1 (COX-1) was determined as 4.7 % inhibition.
With `CC(C)(C)NC(=O)c1cc(-c2ccc(CO)cn2)n(-c2cccnc2)n1` [Example 26, N-tert-Butyl-5-(5-hydroxymethyl-2-pyridyl)-1-(3-pyridyl)-1H-pyrazole-3-carboxamide], in experiment [2], the IC50 stood at 0.065 µM. Further, the “Inhibitory effect against COX-2 at 50 μm (% inhibition)” value at Cyclooxygenase-2 (COX-2) turned out to be 8.2 % inhibition. Moreover, on Cyclooxygenase-1 (COX-1), the “Inhibitory effect against COX-1 at 50 μm (% inhibition)” value amounted to 5.5 % inhibition.
Regarding `CC(C)(C)NC(=O)c1cc(-c2ccc(Cl)cn2)n(-c2cccnc2)n1` [Example 28, N-tert-Butyl-5-(5-chloro-2-pyridyl)-1-(3-pyridyl)-1H-pyrazole-3-carboxamide], the IC50 in experiment [2] was found to be 0.0089 µM. For the same molecule, the “Inhibitory effect against COX-2 at 50 μm (% inhibition)” value at Cyclooxygenase-2 (COX-2) amounted to 7.6 % inhibition. At Cyclooxygenase-1 (COX-1), the “Inhibitory effect against COX-1 at 50 μm (% inhibition)” value is 5.4 % inhibition.
For `COCC(C)(C)NC(=O)c1cc(-c2ccccn2)n(-c2ccc(OC)nn2)n1` [Example 40, N-(2-Methoxy-1,1-dimethylethyl)-1-(6-methoxy-3-pyridazinyl)-5-(2-pyridyl)-1H-pyrazole-3-carboxamide], in that order: 0.065 µM, 14.8 % inhibition and 72 % inhibition.
On the same counts, the results for `COc1ccc(-n2nc(C(=O)NCC3CCCO3)cc2-c2ccccn2)cn1` (stereo not shown) [Example 44, N-(Tetrahydro-2-furanylmethyl)-1-(6-methoxy-3-pyridyl)-5-(2-pyridyl)-1H-pyrazole-3-carboxamide] are 0.14 µM, 3.6 % inhibition and 4.3 % inhibition.
In the case of `COc1ccc(-n2nc(C(=O)NC3(C(N)=O)CCCC3)cc2-c2ccccn2)cn1` [Example 48, N-(1-Carbamoyl-1-cyclopentyl)-1-(6-methoxy-3-pyridyl)-5-(2-pyridyl)-1H-pyrazole-3-carboxamide], the 50% inhibitory concentration (IC50) in experiment [2] is 0.19 µM. Further, the “Inhibitory effect against COX-2 at 50 μm (% inhibition)” value on Cyclooxygenase-2 (COX-2) amounted to 8.7 % inhibition. Also, the “Inhibitory effect against COX-1 at 50 μm (% inhibition)” value on Cyclooxygenase-1 (COX-1) is reported as 3.6 % inhibition.
On the same counts, the results for `COc1ccc(-n2nc(C(=O)NC3CCCC3)cc2-c2ccccn2)nn1` [Example 56, N-Cyclopentyl-1-(6-methoxy-3-pyridazinyl)-5-(2-pyridyl)-1H-pyrazole-3-carboxamide] are 0.092 µM, −1.7 % inhibition and −1.2 % inhibition.
For `Cc1cnc(-c2cc(C(=O)NC(C)(C)C)nn2-c2cccnc2)cn1` [Example 65, N-tert-Butyl-5-(5-methyl-2-pyrazinyl)-1-(3-pyridyl)-1H-pyrazole-3-carboxamide], the IC50 in experiment [2] was determined as 0.02 µM. Further, the “Inhibitory effect against COX-2 at 50 μm (% inhibition)” value on Cyclooxygenase-2 (COX-2) is on record as −1.6 % inhibition. Moreover, the “Inhibitory effect against COX-1 at 50 μm (% inhibition)” value on Cyclooxygenase-1 (COX-1) is recorded as 11.6 % inhibition.

These data come from patent US20070219210A1, “Amidopyrazole Derivative” (Daiichi Pharmaceutical Co., LTD., priority 2003, published 2007).
